What all share (assay): relative viability (nuclei count vs DMSO), 5 days (fraction); higher = more cells survive
Compound in the test “XMD13-2 + Bortezomib”: C1CC1C(=O)NC2=NNC3=C2C=CC(=C3)C4=CC(=CC=C4)C(=O)NC5CC5 [XMD13-2] + CC(C)C[C@H](NC(=O)[C@H](Cc1ccccc1)NC(=O)c1cnccn1)B(O)O [Bortezomib] (partner 0.002 µM)
In outline:
(§1)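 Relative viability equals treated-well nuclei counts divided by vehicle-well nuclei counts. Counts came from 4× images of lung cancer cell lines grown in 1536-well plates for 5 days after pin-tool dosing on the day after seeding. Dosing used one drug alone or a fixed anchor-drug dose plus five library-drug doses (not always all listed) in √10 steps, and values are medians of duplicate plates.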

Compound in the test “ALW-II-49-7 + OSI-027”: Cc1ccc(C(=O)Nc2cccc(C(F)(F)F)c2)cc1Nc1cncc(C(N)=O)c1 [ALW-II-49-7] + COc1cccc2cc(-c3nc([C@H]4CC[C@H](C(=O)O)CC4)n4ncnc(N)c34)[nH]c12 [OSI-027] (partner 0.5 µM)
The essentials:
as §1

Compound in the test “ALW-II-49-7 + Olaparib”: Cc1ccc(C(=O)Nc2cccc(C(F)(F)F)c2)cc1Nc1cncc(C(N)=O)c1 [ALW-II-49-7] + O=C(c1cc(Cc2n[nH]c(=O)c3ccccc23)ccc1F)N1CCN(C(=O)C2CC2)CC1 [Olaparib] (partner 8 µM)
The essentials:
as §1

Compound in the test “Dasatinib + Linsitinib”: Cc1nc(Nc2ncc(C(=O)Nc3c(C)cccc3Cl)s2)cc(N2CCN(CCO)CC2)n1 [Dasatinib] + C[C@]1(O)C[C@@H](c2nc(-c3ccc4ccc(-c5ccccc5)nc4c3)c3c(N)nccn32)C1 [Linsitinib] (partner 1 µM)
The essentials: as §1

With UMC-11, the relative viability in the test with XMD13-2 + Bortezomib (first compound 0.05 µM) came to 0.737; with XMD13-2 + Bortezomib (first compound 0.1581 µM), 0.896; in the test with XMD13-2 + Bortezomib (first compound 0.5 µM), 0.825; with XMD13-2 + Bortezomib (first compound 1.581 µM), 0.587; with XMD13-2 + Bortezomib (first compound 5 µM), 0.981; with ALW-II-49-7 + OSI-027 (first compound 0.08 µM), 0.499. Further, the relative viability with ALW-II-49-7 + OSI-027 (first compound 0.253 µM) came to 0.457; with ALW-II-49-7 + OSI-027 (first compound 0.8 µM), 0.487; with ALW-II-49-7 + OSI-027 (first compound 2.53 µM) it was 0.434; with ALW-II-49-7 + OSI-027 (first compound 8 µM), 0.485; with ALW-II-49-7 + Olaparib (first compound 0.08 µM), 0.428; with ALW-II-49-7 + Olaparib (first compound 0.253 µM), 0.428. Also, the relative viability with ALW-II-49-7 + Olaparib (first compound 0.8 µM) was found to be 0.413; with ALW-II-49-7 + Olaparib (first compound 2.53 µM), 0.345; with ALW-II-49-7 + Olaparib (first compound 8 µM), 0.342; in the test with Dasatinib + Linsitinib (first compound 0.005 µM) it was 0.911; in the test with Dasatinib + Linsitinib (first compound 0.01581 µM) it was 0.827; in the test with Dasatinib + Linsitinib (first compound 0.05 µM), 0.543. Further, the relative viability with Dasatinib + Linsitinib (first compound 0.1581 µM) turned out to be 0.342; with Dasatinib + Linsitinib (first compound 0.5 µM), 0.319.

Values taken from the supplement of paper PMC10307832.
